From the supplement of paper PMC10307832

Assays:
Assay in all cases: relative viability (nuclei count vs DMSO), 5 days (fraction); higher = more cells survive
Tosedostat = compound: CC(C)C[C@@H](C(=O)N[C@H](C(=O)OC1CCCC1)c1ccccc1)[C@H](O)C(=O)NO [Tosedostat]
In short: (§1)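 Hoechst staining, done together with fixation and permeabilisation, marked nuclei for 4× imaging and MetaXpress counting. This followed 5 days without medium change after lung cancer cell lines, kept overnight at 37 °C in 1536-well plates, were pinned with five library-drug doses (not always all listed) spaced by √10 on vehicle-anchored plates. Viability is the ratio of treated-well to vehicle-well nuclei, expressed as a median across plates. Plates passed only at control CV below 25% with at least one doubling.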

[1] = compound: CC1=NN=C(O1)C2=NN=C(C=C2)N3CCC(CC3)OC4=C(C=CC(=C4)F)Cl
In short: as §1

Tosedostat + Navitoclax = compound: CC(C)C[C@@H](C(=O)N[C@H](C(=O)OC1CCCC1)c1ccccc1)[C@H](O)C(=O)NO [Tosedostat] + CC1(C)CCC(c2ccc(Cl)cc2)=C(CN2CCN(c3ccc(C(=O)NS(=O)(=O)c4ccc(N[C@H](CCN5CCOCC5)CSc5ccccc5)c(S(=O)(=O)C(F)(F)F)c4)cc3)CC2)C1 [Navitoclax] (partner 0.5 µM)
In short: (§2)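 Lung cancer cell lines, seeded in 1536-well plates, were treated the following day by pin tool with a single drug or with five library-drug doses (not always all listed) in √10 steps on top of a fixed anchor-drug dose. Cells were fixed and nuclei stained in one step after 5 days, and nuclei were counted. Relative viability is the nuclei count for treated wells divided by that for vehicle wells, reported as medians of duplicate plates.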

[2] = compound: CC1=NN=C(O1)C2=NN=C(C=C2)N3CCC(CC3)OC4=C(C=CC(=C4)F)Cl + N=C(N)NC(=N)NCCc1ccccc1 [Phenformin] (partner 250 µM)
In short: as §2

Cell Line | relative viability (Tosedostat; 0.02 µM) | relative viability (Tosedostat; 0.06325 µM) | relative viability (Tosedostat; 0.2 µM) | relative viability (Tosedostat; 0.6325 µM) | relative viability (Tosedostat; 2 µM) | relative viability ([1]; 0.253 µM) | relative viability ([1]; 0.8 µM) | relative viability ([1]; 2.53 µM) | relative viability ([1]; 8 µM) | relative viability (Tosedostat + Navitoclax; first compound 0.02 µM) | relative viability (Tosedostat + Navitoclax; first compound 0.06325 µM) | relative viability (Tosedostat + Navitoclax; first compound 0.2 µM) | relative viability (Tosedostat + Navitoclax; first compound 0.6325 µM) | relative viability (Tosedostat + Navitoclax; first compound 2 µM) | relative viability ([2]; first compound 0.253 µM) | relative viability ([2]; first compound 0.8 µM) | relative viability ([2]; first compound 2.53 µM) | relative viability ([2]; first compound 8 µM)
NCI-H2170 | 0.997 | 0.963 | 1.02 | 0.984 | 0.89 | 0.481 | 0.52 | 0.607 | 0.444 | 0.654 | 0.586 | 0.572 | 0.533 | 0.63 | 0.336 | 0.291 | 0.355 | 0.323
NCI-H1437 | 1 | 0.987 | 1.05 | 0.97 | 0.889 | 0.741 | 0.642 | 0.707 | 0.632 | 1.13 | 1.09 | 1.15 | 1.09 | 0.99 | 0.209 | 0.236 | 0.288 | 0.252
NCI-H441 | 1.12 | 0.92 | 0.749 | 0.69 | 0.731 | 0.672 | 0.388 | 0.595 | 0.519 | 1.01 | 0.477 | 0.421 | 0.576 | 0.339 | 0.715 | 0.498 | 0.699 | 0.619
NCI-H2087 | 1.21 | 1.06 | 1.11 | 0.819 | 0.942 | 0.771 | 0.569 | 0.659 | 0.621 | 0.995 | 0.916 | 1 | 0.931 | 0.805 | 0.425 | 0.267 | 0.387 | 0.341
NCI-H647 | 1.02 | 1.01 | 1.02 | 0.977 | 0.883 | 0.65 | 0.642 | 0.66 | 0.413 | 1.25 | 1.22 | 0.936 | 1.08 | 1.14 | 0.441 | 0.446 | 0.408 | 0.2
SW 1573 | 1.07 | 0.95 | 0.881 | 0.85 | 0.876 | 0.894 | 0.981 | 0.942 | 0.615 | 1.06 | 1.05 | 1.06 | 0.796 | 0.959 | 0.371 | 0.329 | 0.351 | 0.363
HARA | 1.15 | 0.977 | 0.922 | 0.887 | 0.774 | 0.484 | 0.387 | 0.538 | 0.355 | 1.17 | 1.2 | 1.1 | 0.894 | 1.15 | 0.306 | 0.211 | 0.334 | 0.266
NCI-H2347 | 1.01 | 1.05 | 1.05 | 0.927 | 0.833 | 0.883 | 0.771 | 0.893 | 0.783 | 0.671 | 0.8 | 0.766 | 0.688 | 0.68 |  | 0.382 | 0.493 | 0.359
NCI-H1651 | 1.06 | 0.984 | 0.973 | 0.921 | 0.899 | 0.819 | 0.795 | 0.784 | 0.682 | 1.03 | 0.885 | 1.28 | 1.07 | 1 | 0.367 | 0.487 | 0.368 | 0.325
NCI-H2009 | 1.16 | 0.94 | 0.988 | 0.926 | 0.866 | 0.613 | 0.552 | 0.61 | 0.539 | 1.2 | 1.12 | 1.17 | 1.06 | 1.07 | 0.456 | 0.418 | 0.424 | 0.378
ChaGo-K-1 | 1.07 | 0.975 | 0.969 | 1.02 | 0.771 | 0.736 | 0.681 | 0.687 | 0.671 | 1.23 | 1.1 | 0.905 | 1.01 | 0.761 | 0.471 | 0.373 | 0.545 | 0.381
PC-3 [JPC-3] | 1.08 | 1.13 | 1.04 | 0.933 | 0.641 | 0.85 | 0.805 | 0.896 | 0.926 | 0.85 | 0.837 | 0.825 | 0.678 | 0.638 | 0.433 | 0.406 | 0.426 | 0.412
COR-L23 | 1.13 | 1 | 0.965 | 1.01 | 1.06 | 0.826 | 0.891 | 0.797 | 0.655 | 1.2 | 1.04 | 1.04 | 0.884 | 0.958 | 0.423 | 0.385 | 0.425 | 0.363
COR-L 105 | 1.03 | 0.906 | 0.81 | 0.784 | 0.697 | 0.902 | 0.956 | 0.989 | 1.07 | 0.673 | 0.624 | 0.707 | 0.722 | 0.512 | 0.513 | 0.475 | 0.568 | 0.642
LK-2 | 1.13 | 1.11 | 0.926 | 0.954 | 1.13 | 0.965 | 0.823 | 1.01 | 1.02 | 0.905 | 0.855 | 0.788 | 0.909 | 0.976 | 0.576 | 0.433 | 0.661 | 0.38
201T | 1 | 1 | 1.02 | 1.06 | 1.01 | 0.481 | 0.523 | 0.553 | 0.503 | 1.19 | 1.24 | 1.29 | 1.32 | 1.28 | 0.38 | 0.436 | 0.46 | 0.443
HCC-44 | 1.09 | 1.01 | 0.982 | 0.905 | 0.628 | 0.492 | 0.542 | 0.509 | 0.517 | 0.849 | 0.912 | 0.949 | 0.946 | 0.539 | 0.267 | 0.167 | 0.178 | 0.157
